This is an account of results in paper PMC3798429, “Exploring the Trypanosoma brucei Hsp83 Potential as a Target for Structure Guided Drug Design” (PLoS Neglected Tropical Diseases, 2013).

Experiment [1] addresses T1, Human Hsp90β.
T1 construct: The NTDs from TbHsp83 as well as human Hsp90s α and β
As to conditions: read-out: K d (previous ITC measurements); cited from earlier work. For orientation: Isothermal titration calorimetry measures the heat released or taken up as one component is titrated into another.

The target of experiment [2] is T2, TbHsp83 NTD (Trypanosoma brucei brucei, UniProt P12861). Format: binding. To be noted: TbHsp83 NTD, inhibitor 25 µM, shifts above 2°C considered significant. The method, then:
(§1) DSF screening was carried out using a LightCycler 480 Real Time PCR System (Roche Applied Science, Quebec, Canada). The NTDs from TbHsp83 as well as human Hsp90s α and β were buffered in 100 mM hepes pH 7.5, 150 mM NaCl and assayed in a 384-well format. The final concentration of the protein sample was optimized between 0.05 and 0.2 mg/ml for each NTD (concentration selected based on pre-testing results to avoid saturation of the fluorescence detector). […] The recorded fluorescence reads were fitted to the Boltzmann sigmoid function using Bioactive software (Harbinger Biotechnology and Engineering Corp., Ontario, Canada). The inflection point of each fitted curve is defined as the melting temperature (T m). […] Thermal shifts above 2°C were considered significant.

Experiment [3] has as its system T1, Human Hsp90β. Briefly: Differential scanning fluorimetry (DSF) thermal shift, human Hsp90β NTD. Type of experiment: binding. As to conditions: inhibitor 25 µM. The method, then:
as §1
A general note: Differential scanning fluorimetry follows unfolding on heating by fluorescence.

The next experiment concerns the target Human TRAP-1. To be noted: read-out: K d (previous ITC measurements); cited from earlier work.
For a further experiment, the system named is T3, Human Hsp90α.
T3 construct: The NTDs from TbHsp83 as well as human Hsp90s α and β
Nature of the experiment: Differential scanning fluorimetry (DSF) thermal shift, human Hsp90α NTD. Type of experiment: binding. To be noted: inhibitor 25 µM. The method, then: as §1

For the next experiment, the target named is Yeast Hsp83. To be noted: read-out: K d (previous ITC measurements); cited from earlier work.
Experiment [4] addresses T2, TbHsp83 NTD. Nature of the experiment: biochemical. Format: binding.
Another experiment concerns T. brucei 427. Nature of the experiment: Parasite growth inhibition assay. Format: cell-based. To be noted: Trypanosoma brucei. The method, then: Assay conditions for T. brucei 427 cell based assay were followed as previously reported in the literature.
Several of the compounds characterized using DSF and ITC assays were evaluated for their ability to kill T. brucei in a continuous in vitro culture system.

In experiment [5] the test system is TbHsp83 NTD. Format: binding. To be noted: DSF comparison of TbHsp83, Hsp90α and Hsp90β. The method, then: as §1
Another experiment deals with Trypanosoma brucei. Also on record: method as in PMID 23630365. To be noted: cited from earlier work.
Another experiment concerns Plasmodium. Also noted: method as in PMID 12584193. To be noted: cited from earlier work.
The mark [6] stands for this setting: ITC, 20°C, TbHsp83 NTD, read-out: K d.
Setting [7] is: blood stream stage T. brucei 427, in vitro culture, read-out: EC50.

In general, EC50 refers to the midpoint of the concentration-response curve.

Several values for one entry are separate records, joined by “and”; a condition that tells them apart may be missing. Identical values can stand only once. Like-named read-outs stand apart in the source and are kept apart here. Marks after values point to notes of the source that are not given here.

T2 sequence (P12861 1-213): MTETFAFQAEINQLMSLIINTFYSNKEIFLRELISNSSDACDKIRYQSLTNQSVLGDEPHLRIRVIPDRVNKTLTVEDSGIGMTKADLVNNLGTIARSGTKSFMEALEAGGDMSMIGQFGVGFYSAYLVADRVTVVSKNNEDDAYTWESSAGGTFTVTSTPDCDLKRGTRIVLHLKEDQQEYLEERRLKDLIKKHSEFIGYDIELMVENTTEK

For `Nc1ncnc2c1ncn2[C@@H]1O[C@H](COP(=O)(O)OP(=O)(O)O)[C@@H](O)[C@H]1O` [ADP], the figures for the Kd on Human Hsp90β [1] and at Human TRAP-1 were 15000 nM and 35000 nM, respectively. Also, the results for the ΔT m at TbHsp83 NTD [2], with Human Hsp90β [3] and with Human Hsp90α were 0.1 °C, 0.5^b °C and 0.3^a °C, respectively.
For `Nc1ncnc2c1ncn2[C@@H]1O[C@H](COP(=O)(O)OP(=O)(O)NP(=O)(O)O)[C@@H](O)[C@H]1O` [AMPPNP], the values for the Kd at Human Hsp90β [1] and at Yeast Hsp83 were 141000 nM and 111000 nM, respectively. The ΔT m on TbHsp83 NTD [2] was 0.3 °C.
Take `Oc1cc(O)c(-c2noc3ccc(NCCN4CCOCC4)cc23)cc1Cl` [CAY10607]: the ΔT m amounted to 13.3 °C on TbHsp83 NTD [2], 12.1 °C in the experiment with Human Hsp90β [3] and 15.3 °C in the experiment with Human Hsp90α. In addition, the Kd at TbHsp83 NTD [4] (setting [6]) is 10 nM.
Regarding `CCc1cc(-c2n[nH]c(C)c2-c2ccc3c(c2)OCCO3)c(O)cc1O` [CCT018159], the ΔT m stood at 8.01 °C on TbHsp83 NTD [2], 7.5 °C in the experiment with Human Hsp90β [3] and 12.1 °C with Human Hsp90α. Also, the Kd on TbHsp83 NTD [4] (setting [6]) is 4980 nM.
Regarding `COc1c(C)cnc(Cn2cnc3c(Cl)nc(N)nc32)c1C` [Compound 1, 6-chloro-9-(4-methoxy-3,-dimethylpyridin-2-ylmethyl)-9H-purin-2-ylamine], the half-maximal effective concentration (EC50) in the experiment with T. brucei 427 (setting [7]) was 310 nM. The values for the ΔT m at TbHsp83 NTD [2] and in the experiment on Human Hsp90β [3] were 10.5 °C and 8.7 °C, respectively. This compound also displayed a Kd at TbHsp83 NTD [4] (K d, ITC, 20°C, TbHsp83 NTD) of 9 nM.
Turning to `CCC(C)n1c(Cc2cc(OC)ccc2OC)nc2c(N)nc(C)nc21` (stereo not shown) [Compound 2, 9-(sec-butyl)-8-(2,5-dimethoxybenzyl)-2-methyl-9H-purin-6-amine], in the experiment on T. brucei 427 (setting [7]), the 50% effective concentration (EC50) was 13000 nM. Further, the ΔT m on TbHsp83 NTD [2] is 0.8 °C; on TbHsp83 NTD [2] (listed as compound 2), “non-significant”; with Human Hsp90β [3], −0.5 °C; in the experiment with Human Hsp90α, 1.2 °C. On TbHsp83 NTD [4] (ITC, 20°C, TbHsp83 NTD), the K d result is given as “lowest affinity measured by ITC”. In addition, the Kd on TbHsp83 NTD [4] (setting [6]) is 9300 nM and 9260 nM.
Regarding `CCNC(=O)c1cc2c(-c3cc(OCCN(CC)CC)c(Cl)cc3Cl)nc(N)nc2s1` [Compound 3, 2-amino-4-[2,4-dichloro-5-(2-diethylaminoethoxy)phenyl]thiopheno[2,3-d]pyrimidine-6-carboxylic acid ethylamide], the midpoint of the response with T. brucei 427, the EC50, lay at 210 nM. Also, the ΔT m was 12.7 °C on TbHsp83 NTD [2], 12.9 °C with Human Hsp90β [3] and 14.7 °C in the experiment on Human Hsp90α. Also, the Kd at TbHsp83 NTD [4] (setting [6]) is 26 nM.
Consider `CC1(C)CC(=O)c2c(C(F)(F)F)nn(-c3ccc(C(N)=O)c(N[C@H]4CC[C@H](O)CC4)c3)c2C1` [Compound 4, 4-[6,6-dimethyl-4-oxo-3-(trifluoromethyl)-4,5,6,7-tetrahydro-1H-indazol-1-yl]-2-[(trans-4-hydroxycyclohexyl)amino]benzamide], for which, in the experiment with T. brucei 427 (setting [7]), the EC50 was determined as 100 nM. In addition, the ΔT m on TbHsp83 NTD [2] is 15.5 °C. Besides, the Kd on TbHsp83 NTD [4] (setting [6]) was 3 nM; at TbHsp83 NTD [4] (ITC, read-out: K d), 2.8 nM.
Consider `CSCCNc1cc(-n2nc(C(F)(F)F)c3c2CC(C)(C)CC3=O)ccc1C(N)=O` [Compound 5, 4-(6,6-dimethyl-4-oxo-3-(trifluoromethyl)-4,5,6,7-tetrahydro-1H-indazol-1-yl)-2-((2-(methylthio)ethyl)amino)benzamide], for which, in the experiment with T. brucei 427 (setting [7]), the concentration for a half-maximal effect (EC50) was found to be 130 nM. Besides, the ΔT m at TbHsp83 NTD [2] was determined as 12.03 °C; with Human Hsp90β [3], 0.4 °C; with Human Hsp90α it was 2.3 °C. Also, the “binding preference TbHsp83 vs human Hsp90” value is “preferentially binds TbHsp83” in the experiment on TbHsp83 NTD [5] and “markedly stronger binding to TbHsp83” with TbHsp83 NTD [5] (listed as compound 5). Further, the Kd on TbHsp83 NTD [4] (setting [6]) worked out at 794 nM.
In the case of `CC(=O)c1ccc(N2C3CCC2CC(NC(=O)c2ccc(C(N)=O)c(NC4CCC(O)CC4)c2)C3)nc1` (stereo not drawn) [Compound 6, N4-[8-(5-acetylpyridin-2-yl)-8-azabicyclo[3.2.1]oct-3-endo-yl]-2-[(trans-4-hydroxycyclohexyl)amino]benzene-1,4-dicarboxamide], in the experiment on T. brucei 427 (setting [7]), the EC50 turned out to be 220 nM. Further, the ΔT m on TbHsp83 NTD [2] is 10.4 °C; in the experiment on Human Hsp90β [3], 4.9 °C; with Human Hsp90α it was 8.5 °C.
As for `C=CCNC1=C2C[C@@H](C)C[C@H](OC)[C@H](O)[C@@H](C)/C=C(\C)[C@H](OC(N)=O)[C@@H](OC)/C=C\C=C(/C)C(=O)NC(=CC1=O)C2=O` [Compound 17-AAG-GA, 17-AAG-GA], the figures for the ΔT m on TbHsp83 NTD [2], in the experiment with Human Hsp90β [3] and in the experiment with Human Hsp90α were 10.7 °C, 1.6 °C and 3.1 °C, respectively. Also, the half-maximal effective concentration (EC50) with Trypanosoma brucei was 38 nM.
Consider `CO[C@H]1/C=C\C=C(/C)C(=O)NC2=CC(=O)C(NCCN3CCCC3)=C(C[C@@H](C)C[C@H](OC)[C@H](O)[C@@H](C)/C=C(\C)[C@@H]1OC(N)=O)C2=O` [Compound 17-AEP-GA, 17-AEP-GA], for which the ΔT m on TbHsp83 NTD [2] is 13.8 °C; in the experiment on Human Hsp90β [3], 4.2 °C; in the experiment on Human Hsp90α it was 5.1 °C. Besides, the Kd on TbHsp83 NTD [4] (setting [6]) turned out to be 714 nM.
`CO[C@H]1/C=C\C=C(/C)C(=O)NC2=CC(=O)C(NCCN(C)C)=C(C[C@@H](C)C[C@H](OC)[C@H](O)[C@@H](C)/C=C(\C)[C@@H]1OC(N)=O)C2=O` [Compound 17-DAMG-GA, 17-DAMG-GA]: the Kd on Human Hsp90β [1] was 350 nM. Besides, the ΔT m at TbHsp83 NTD [2] amounted to 11.7 °C; in the experiment on Human Hsp90β [3] it was 3.9 °C; in the experiment on Human Hsp90α, 5.5 °C. Also, the EC50 with Trypanosoma brucei was 3 nM.
On to `COC1=C2C[C@@H](C)C[C@H](OC)[C@H](O)[C@@H](C)/C=C(\C)[C@H](OC(N)=O)[C@@H](OC)/C=C\C=C(/C)C(=O)NC(=CC1=O)C2=O` [Geldanamycin], for which, in the experiment on Plasmodium, the “concentration inhibiting parasite growth” value is “sub-micromolar”. In addition, at TbHsp83 NTD [2], the ΔT m worked out at 14.8 °C. Besides, the Kd at TbHsp83 NTD [4] (K d, ITC, 20°C, TbHsp83 NTD) was 1000 nM; on Yeast Hsp83, 2900 nM. The concentration giving a half-maximal response (EC50) in the experiment on Trypanosoma brucei is 13 nM.
Take `CO[C@H]1[C@@H](OC)C[C@H](C)[C@@H](OC)C2=CC(=O)C=C(NC(=O)/C(C)=C/C=C\[C@H](C)[C@@H](OC(N)=O)/C(C)=C/[C@@H]1C)C2=O` [Macbecin I]: the ΔT m came to 16.9 °C at TbHsp83 NTD [2], 8.6 °C in the experiment with Human Hsp90β [3] and 10.2 °C in the experiment with Human Hsp90α. For the same compound, in the experiment on TbHsp83 NTD [5], the “binding preference TbHsp83 vs human Hsp90” value is “markedly stronger binding to TbHsp83”. In addition, on TbHsp83 NTD [4] (ITC K d vs yeast value of ref 45), the “fold higher affinity of T. brucei Hsp83 compared to K d reported for yeast counterpart” value is 2.5 fold. Further, the Kd at TbHsp83 NTD [4] (K d, ITC, 20°C, TbHsp83 NTD) is 93 nM; at Yeast Hsp83, 240 nM.
With `CCNC(=O)c1noc(-c2cc(C(C)C)c(O)cc2O)c1-c1ccc(CN2CCOCC2)cc1` [NVP-AUY922], the ΔT m came to 18.5 °C at TbHsp83 NTD [2], 19.6 °C with Human Hsp90β [3] and 22.3 °C in the experiment with Human Hsp90α. For the same compound, the “binding preference TbHsp83 vs human Hsp90” value in the experiment on TbHsp83 NTD [5] was “stronger affinity for human Hsp90”. Further, the Kd at TbHsp83 NTD [4] (setting [6]) was found to be 3 nM.
`C[C@@H]1C[C@H]2O[C@@H]2/C=C\C=C\C(=O)Cc2c(Cl)c(O)cc(O)c2C(=O)O1` [Radicicol]: the ΔT m at TbHsp83 NTD [2] amounted to 6.5 °C; in the experiment with Human Hsp90β [3] it was 15.6 °C; in the experiment with Human Hsp90α, 18.8 °C. In addition, in the experiment on TbHsp83 NTD [5], the “binding preference TbHsp83 vs human Hsp90” value was “stronger affinity for human Hsp90”. The concentration giving a half-maximal response (EC50) with Trypanosoma brucei is 70 nM. In addition, the figures for the Kd on Yeast Hsp83 and on Human TRAP-1 were 16 nM and 25 nM, respectively.
Consider AMPPSP, for which the Kd at Human TRAP-1 is 109000 nM.
